Experiments:
BRAF V660E = BRAF V660E (Homo sapiens, UniProt P15056, V600E); assay: KD BRAF V660E (Table 1; no method described); format: binding
BRAF = BRAF (Homo sapiens, UniProt P15056); assay: KD BRAF (Table 1; no method described); format: binding
[1] = tested on: A375 cells (V600E mutated BRAF), ERK phospho-T202/Y204; assay: HTRF assay for P-ERK determination in A375 cells (BRAF inhibition); format: cell-based; conditions: Homo sapiens, A-375, 1 hour drug incubation, DMSO = 100%, 10 μM Dabrafenib = 0%, top concentration 10 μM, read-out: P-ERK_A375: IC50
Summary of the method: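 A375 cells (V600E BRAF), 8000/well, treated 1 h with compounds at 0.001–10 μM final in duplicate; lysed and phospho-ERK (Thr202/Tyr204) read by HTRF at 665/620 nm after overnight RT incubation. Blank-subtracted ratios normalized to DMSO (100%) and 10 μM dabrafenib (0%); IC50 from sigmoidal fit.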

[2] = tested on: HCT116 cells (WT BRAF), ERK phospho-T202/Y204; assay: HTRF assay for P-ERK determination in HCT116 cells (BRAF activation, paradox); format: cell-based; conditions: for EC50: Homo sapiens, HCT-116, HCT116 cells, 1 hour drug incubation, activation relative to maximum Dabrafenib-mediated activation (100%), top concentration 10 μM, read-out: P-ERK_HCT-116: EC50—50PCT; for Fold Selectivity HCT-116 EC50-50/ A375: ratio of P-ERK HCT-116 EC50-50PCT to P-ERK A375 IC50
Summary of the method: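 HCT116 (WT BRAF) cells, 8000/well in DMEM + 10% FBS, treated 1 h with compound at 0.001–10 μM in duplicate; lysed, then HTRF antibodies for ERK phospho-T202/Y204, read after overnight dark incubation at room temperature. Blank-subtracted ratio normalized to DMSO (0%) and peak dabrafenib signal (100%); sigmoidal or bell-shaped fit gives % activation.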

Chain of BRAF (P15056 whole entry): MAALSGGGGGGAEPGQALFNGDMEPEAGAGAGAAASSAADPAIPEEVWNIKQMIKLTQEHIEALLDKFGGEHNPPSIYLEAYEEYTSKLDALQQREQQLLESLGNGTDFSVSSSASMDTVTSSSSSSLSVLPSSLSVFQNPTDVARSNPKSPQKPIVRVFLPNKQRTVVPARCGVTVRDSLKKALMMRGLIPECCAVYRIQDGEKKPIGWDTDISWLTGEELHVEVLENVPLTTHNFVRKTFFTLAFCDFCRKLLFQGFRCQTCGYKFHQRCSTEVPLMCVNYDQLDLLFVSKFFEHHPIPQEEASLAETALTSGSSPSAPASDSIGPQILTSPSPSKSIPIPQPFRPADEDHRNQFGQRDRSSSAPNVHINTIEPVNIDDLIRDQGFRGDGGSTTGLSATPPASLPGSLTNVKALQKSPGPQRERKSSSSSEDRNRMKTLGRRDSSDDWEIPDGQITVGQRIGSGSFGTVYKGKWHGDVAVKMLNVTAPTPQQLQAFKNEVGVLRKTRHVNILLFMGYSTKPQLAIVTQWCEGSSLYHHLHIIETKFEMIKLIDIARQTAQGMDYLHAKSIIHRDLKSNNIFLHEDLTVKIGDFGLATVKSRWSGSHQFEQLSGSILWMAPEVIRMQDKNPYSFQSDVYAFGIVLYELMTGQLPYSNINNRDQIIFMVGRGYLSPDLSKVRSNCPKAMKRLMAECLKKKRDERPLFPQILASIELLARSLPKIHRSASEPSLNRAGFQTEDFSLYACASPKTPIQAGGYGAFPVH
Chain of BRAF V660E (P15056 2-766 V600E): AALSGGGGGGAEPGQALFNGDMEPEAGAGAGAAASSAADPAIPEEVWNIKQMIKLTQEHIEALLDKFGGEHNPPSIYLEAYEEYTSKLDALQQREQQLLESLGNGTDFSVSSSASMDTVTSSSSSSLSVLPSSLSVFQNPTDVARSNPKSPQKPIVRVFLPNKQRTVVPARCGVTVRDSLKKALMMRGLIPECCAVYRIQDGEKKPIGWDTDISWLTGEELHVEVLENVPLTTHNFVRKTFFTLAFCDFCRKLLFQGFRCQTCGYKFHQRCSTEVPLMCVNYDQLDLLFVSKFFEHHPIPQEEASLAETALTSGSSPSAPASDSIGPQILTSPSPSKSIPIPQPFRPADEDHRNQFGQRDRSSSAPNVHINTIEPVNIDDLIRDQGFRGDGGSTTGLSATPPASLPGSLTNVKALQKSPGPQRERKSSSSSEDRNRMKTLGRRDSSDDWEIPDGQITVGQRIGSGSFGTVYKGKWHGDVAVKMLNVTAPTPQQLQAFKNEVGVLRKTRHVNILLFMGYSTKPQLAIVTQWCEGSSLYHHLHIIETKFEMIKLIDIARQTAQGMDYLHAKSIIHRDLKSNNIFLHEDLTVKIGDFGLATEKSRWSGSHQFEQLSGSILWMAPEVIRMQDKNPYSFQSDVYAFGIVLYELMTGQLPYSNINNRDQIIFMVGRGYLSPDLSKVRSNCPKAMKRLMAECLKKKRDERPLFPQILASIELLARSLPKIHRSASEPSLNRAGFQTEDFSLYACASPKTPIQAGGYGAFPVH

Row | SMILES | Kd (BRAF V660E) [nM] | Kd (BRAF) [nM] | IC50 [1] [nM] | EC50 [2] [nM] | Fold Selectivity HCT-116 EC50-50/ A375 [2]
1 | CCN(C)S(=O)(=O)Nc1cccc(-c2cc3cnc(NCCC4CCN(C(C)=O)CC4)nc3n(C)c2=O)c1C#N [Example 37, 2-[2-(1-acetylpiperidin-4-yl)ethylamino]-6-[2-cyano-3-[[ethyl(methyl)sulfamoyl]amino]phenyl]-8-methyl-7-oxopyrido[2,3-d]pyrimidine] | 4 | 2.2 | 49.5 | 463 | 9.4
2 | Cl.NCCOCCOCCn1c(=O)c(-c2c(F)ccc(NS(=O)(=O)N3CC[C@@H](F)C3)c2F)cc2cnc(NCC3CC3)nc21 [Example 39, (3R)—N-[3-[8-[2-[2-(2-aminoethoxy)ethoxy]ethyl]-2-(cyclopropylmethylamino)-7-oxopyrido[2,3-d]pyrimidin-6-yl]-2,4-difluorophenyl]-3-fluoropyrrolidine-1-sulfonamide; hydrochloride] | 41.3 | 13.4 | ≥ 10000 | ≥ 10000 | 1.0
3 | CC(=O)NCCOCCOCCn1c(=O)c(-c2c(F)ccc(NS(=O)(=O)N3CC[C@@H](F)C3)c2F)cc2cnc(NCC3CC3)nc21 [Example 41, N-[2-[2-[2-[2-(cyclopropylmethylamino)-6-[2,6-difluoro-3-[[(3R)-3-fluoropyrrolidin-1-yl]sulfonylamino]phenyl]-7-oxopyrido[2,3-d]pyrimidin-8-yl]ethoxy]ethoxy]ethyl]acetamide] | 56.1 | 21.2 | 844 | ≥ 10000 | >11.8
4 | CC(=O)N[C@H]1C[C@H](n2c(=O)c(-c3c(F)ccc(NS(=O)(=O)N4CC[C@@H](F)C4)c3F)cc3cnc(NCC4CC4)nc32)C1 [Example 43, trans-N-[3-[2-(cyclopropylmethylamino)-6-[2,6-difluoro-3-[[(3R)-3-fluoropyrrolidin-1-yl]sulfonylamino]phenyl]-7-oxopyrido[2,3-d]pyrimidin-8-yl]cyclobutyl]acetamide] | 12.9 | 5.5 | 108 | 404 | 3.7
5 | CCN(C)S(=O)(=O)Nc1ccc(F)c(-c2cc3cnc(NCC4CC4)nc3n(CCOCc3ccccc3)c2=O)c1F [Example 44, 2-(Cyclopropylmethylamino)-6-[3-[[ethyl(methyl)sulfamoyl]amino]-2,6-difluorophenyl]-7-oxo-8-(2-phenylmethoxyethyl)pyrido[2,3-d]pyrimidine] | 1750 | 1380 | 1900 | ≥ 10000 | >5.3
6 | Cn1c(=O)c(-c2c(F)ccc(NS(=O)(=O)N3CC[C@@H](F)C3)c2F)cc2cnc(NCCc3ccc(CC(=O)OC(C)(C)C)cc3)nc21 [Example 46, tert-butyl 2-[4-[2-[[6-[2,6-difluoro-3-[[(3R)-3-fluoropyrrolidin-1-yl]sulfonylamino]phenyl]-8-methyl-7-oxopyrido[2,3-d]pyrimidin-2-yl]amino]ethyl]phenyl]acetate] | 224 | 96.7 | 64.2 | 3530 | 55.0
7 | COC(=O)Cc1cccc(CCNc2ncc3cc(-c4c(F)ccc(NS(=O)(=O)N5CC[C@@H](F)C5)c4F)c(=O)n(C)c3n2)c1 [Example 47, methyl 2-[3-[2-[[6-[2,6-difluoro-3-[[(3R)-3-fluoropyrrolidin-1-yl]sulfonylamino]phenyl]-8-methyl-7-oxopyrido[2,3-d]pyrimidin-2-yl]amino]ethyl]phenyl]acetate] | 23.2 | 9.2 | 38.5 | 4470 | 116.0
8 | Cn1c(=O)c(-c2c(F)ccc(NS(=O)(=O)N3CC[C@@H](F)C3)c2F)cc2cnc(NCCc3cnc(CC(=O)OC(C)(C)C)nc3)nc21 [Example 48, tert-butyl 2-[5-[2-[[6-[2,6-difluoro-3-[[(3R)-3-fluoropyrrolidin-1-yl]sulfonylamino]phenyl]-8-methyl-7-oxopyrido[2,3-d]pyrimidin-2-yl]amino]ethyl]pyrimidin-2-yl]acetate] | 56.6 | 26.6 | 176 | 5920 | 33.7
9 | CC(=O)N1Cc2ccc(CCNc3ncc4cc(-c5c(F)ccc(NS(=O)(=O)N6CC[C@@H](F)C6)c5F)c(=O)n(C)c4n3)cc2C1 [Example 49, (3R)—N-[3-[2-[2-(2-Acetyl-1,3-dihydroisoindol-5-yl)ethylamino]-8-methyl-7-oxopyrido[2,3-d]pyrimidin-6-yl]-2,4-difluorophenyl]-3-fluoropyrrolidine-1-sulfonamide] | 6.5 | 2.5 | 8.4 | 989 | 117.8
10 | CC(=O)N1CCc2ccc(CCNc3ncc4cc(-c5c(F)ccc(NS(=O)(=O)N6CC[C@@H](F)C6)c5F)c(=O)n(C)c4n3)cc2C1 [Example 50, (3R)-N-[3-[2-[2-(2-acetyl-3,4-dihydro-1H-isoquinolin-7-yl)ethylamino]-8-methyl-7-oxopyrido[2,3-d]pyrimidin-6-yl]-2,4-difluorophenyl]-3-fluoropyrrolidine-1-sulfonamide] | 13.8 | 4.5 | 15 | 1550 | 103.6

Source: patent publication US20230322776A1, “NEW ARYL-PYRIDO-PYRIMIDIN-ONE DERIVATIVES” (Hoffmann-La Roche Inc., priority 2020, published 2023)
